The test system of the experiment is HBV. Nature of the experiment: HBV-DNA Antiviral Assay Using HepG2.117 Cells (intracellular HBV DNA by qPCR). It is filed as cell-based, hepatitis B virus (genotype D). The note with it: Hepatitis B virus, HepG2.117. The method in brief: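 HepG2.117 cells (genotype D HBV, Tet-off) were induced by doxycycline withdrawal and treated for 3 days with 9 concentrations in 4-fold dilution, 2% DMSO final. Intracellular HBV DNA was measured by qPCR against a standard curve, with ATPlite viability read in parallel. EC50, EC90 and CC50 came from fits against the DMSO control.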
Background: Real-time PCR tracks product formation cycle by cycle.

For `C[C@H](NC(=O)c1c2n(c(=O)n1C)CCN(C(=O)c1ccc(Br)c(Cl)c1)C2)c1ccccc1` (stereo in doubt) [Example 112, 7-(4-bromo-3-chloro-benzoyl)-2-methyl-3-oxo-N-[rac-(1S)-1-phenylethyl]-6,8-dihydro-5H-imidazo[1,5-a]pyrazine-1-carboxamide], the EC50 (in general, the concentration that produces a half-maximal response) is greater than 5000 nM.

`COc1cccc(-n2c(C(=O)NCc3ccccc3)c3n(c2=O)CCN(C(=O)c2ccc(Br)c(Cl)c2)C3)c1` [Example 41, N-benzyl-7-(4-bromo-3-chloro-benzoyl)-2-(3-methoxyphenyl)-3-oxo-6,8-dihydro-5H-imidazo[1,5-a]pyrazine-1-carboxamide] displayed a 50% effective concentration (EC50) of 500 to 5000 nM.

`O=C(NCc1ccccc1-c1cocn1)c1c2n(c(=O)n1-c1ccc(OCC(F)(F)F)cc1)CCN(C(=O)c1ccc(Br)c(Cl)c1)C2` [Example 386, 7-(4-bromo-3-chloro-benzoyl)-N-[(2-oxazol-4-ylphenyl)methyl]-3-oxo-2-[4-(2,2,2-trifluoroethoxy)phenyl]-6,8-dihydro-5H-imidazo[1,5-a]pyrazine-1-carboxamide] gave a half-maximal effective concentration (EC50) of 100 to 500 nM.

`C[C@H](Oc1ccc(CNC(=O)c2c3n(c(=O)n2-c2ccc(OCC(F)(F)F)cc2)CCN(C(=O)c2ccc(Br)c(Cl)c2)C3)c(F)c1)C(N)=O` (stereo in doubt) [Example 353, 7-(4-bromo-3-chloro-benzoyl)-N-[[2-fluoro-4-[rac-(1S)-2-amino-1-methyl-2-oxo-ethoxy]phenyl]methyl]-3-oxo-2-[4-(2,2,2-trifluoroethoxy)phenyl]-6,8-dihydro-5H-imidazo[1,5-a]pyrazine-1-carboxamide] displayed an EC50 of 500 to 5000 nM.

For `COc1ccc(CNC(=O)c2c3n(c(=O)n2-c2ccc(C#N)cc2)CCN(C(=O)c2ccc(Br)c(Cl)c2)C3)c(C)c1` [Example 163, 7-(4-bromo-3-chloro-benzoyl)-2-(4-cyanophenyl)-N-[(4-methoxy-2-methyl-phenyl)methyl]-3-oxo-6,8-dihydro-5H-imidazo[1,5-a]pyrazine-1-carboxamide], the EC50 fell in the range of 500 to 5000 nM.

On to `COc1ccc([C@@H](C)NC(=O)c2c3n(c(=O)n2-c2ccc(OC(C)C)cc2)CCN(C(=O)c2ccc(Br)c(Cl)c2)C3)c(F)c1` (stereo in doubt) [Example 245, 7-(4-bromo-3-chloro-benzoyl)-2-(4-isopropoxyphenyl)-3-oxo-N-[rac-(1R)-1-(2-fluoro-4-methoxy-phenyl)ethyl]-6,8-dihydro-5H-imidazo[1,5-a]pyrazine-1-carboxamide], for which the EC50 is less than 100 nM.

`O=C(NCc1ccccc1)c1c2n(c(=O)n1-c1ccc(N3CCO[C@H](C(F)(F)F)C3)cc1)CCN(C(=O)c1ccc(Br)c(Cl)c1)C2` [Example 415, N-benzyl-7-(4-bromo-3-chloro-benzoyl)-2-[4-(2,2-difluoro-1λ^2-fluora-8-oxa-5-azaspiro[2.5]octan-5-yl)phenyl]-3-oxo-6,8-dihydro-5H-imidazo[1,5-a]pyrazine-1-carboxamide]: the concentration giving a half-maximal response (EC50) lay in the range of 100 to 500 nM.

`C[C@H](NC(=O)c1c2n(c(=O)n1-c1ccc(OC3CC3)cc1)CCN(C(=O)c1ccc(Br)c(Cl)c1)C2)c1ccccc1` (racemic) [Example 168, 7-(4-bromo-3-chloro-benzoy)-2-[4-(cyclopropoxy)phenyl]-3-oxo-N-[rac-(1S)-1-phenylethyl]-6,8-dihydro-5H-imidazo[1,5-a]pyrazine-1-carboxamide] showed an EC50 of 100 to 500 nM.

For `COc1ccc(-n2c(C(=O)N[C@@H](CO)c3ccccc3)c3n(c2=O)CCN(C(=O)c2ccc(Br)c(Cl)c2)C3)cc1` (racemic) [Example 144, 7-(4-bromo-3-chloro-benzoyl)-2-(4-methoxyphenyl)-3-oxo-N-[rac-(1R)-2-hydroxy-1-phenyl-ethyl]-6,8-dihydro-5H-imidazo[1,5-a]pyrazine-1-carboxamide], the EC50 lay within 500 to 5000 nM.

The compound `C[C@@H](NC(=O)c1c2n(c(=O)n1-c1ccc(-n3cccn3)cc1)CCN(C(=O)c1ccc(Br)c(Cl)c1)C2)c1ccccc1F` (stereo in doubt) [Example 405, 7-(4-bromo-3-chloro-benzoyl)-3-oxo-2-(4-pyrazol-1-ylphenyl)-N-[rac-(1R)-1-(2-fluorophenyl)ethyl]-6,8-dihydro-5H-imidazo[1,5-a]pyrazine-1-carboxamide] came in with a concentration for a half-maximal effect (EC50) of less than 100 nM.

In the case of `COc1ccc(-n2c(C(=O)NCc3ccc(OCC(=O)O)cc3)c3n(c2=O)CCN(C(=O)c2ccc(Br)c(Cl)c2)C3)cc1` [Example 204, 2-[4-[[[7-(4-bromo-3-chloro-benzoyl)-2-(4-methoxyphenyl)-3-oxo-6,8-dihydro-5H-imidazo[1,5-a]pyrazine-1-carbonyl]amino]methyl]phenoxy]acetic acid], the EC50 was greater than 5000 nM.

For the compound `NC(=O)c1cccc(-n2c(C(=O)NCc3ccccc3)c3n(c2=O)CCN(C(=O)c2ccc(Br)c(Cl)c2)C3)c1` [Example 35, N-benzyl-7-(4-bromo-3-chloro-benzoyl)-2-(3-carbamoylphenyl)-3-oxo-6,8-dihydro-5H-imidazo[1,5-a]pyrazine-1-carboxamide], the EC50 was greater than 5000 nM.

In turn, `C[C@@H]1Cn2c(c3n(c2=O)C[C@H](F)CN(Cc2ccccc2)C3=O)CN1C(=O)c1ccc(Br)c(Cl)c1` (stereo in doubt) [Example 374, rac-(5R,11R)-13-benzyl-4-(4-bromo-3-chloro-benzoyl)-11-fluoro-5-methyl-4,7,9,13-tetrazatricyclo[7.5.0.0^2,7]tetradec-1-ene-8,14-dione] gave an EC50 of 100 to 500 nM.

`N#Cc1cc(C(=O)N2CCn3c(c(C(=O)NCc4ccccc4-c4ncco4)n(-c4ccc(OC5CC5)cc4)c3=O)C2)ccc1Br` [Example 433, 7-(4-bromo-3-cyano-benzoyl)-2-[4-(cyclopropxy)phenyl]-N-[(2-oxazol-2-ylphenyl)methyl]-3-oxo-6,8-dihydro-5H-imidazo[1,5-a]pyrazine-1-carboxamide] gave a half-maximal effective concentration (EC50) of 100 to 500 nM.

The compound `COc1ccc(-n2c(C(=O)NCc3ccc(OC(F)(F)F)cc3)c3n(c2=O)CCN(C(=O)c2ccc(Br)c(Cl)c2)C3)cc1` [Example 158, 7-(4-bromo-3-chloro-benzoyl)-2-(4-methoxyphenyl)-3-oxo-N-[[4-(trifluoromethoxy)phenyl]methyl]-6,8-dihydro-5H-imidazo[1,5-a]pyrazine-1-carboxamide] had an EC50 of 100 to 500 nM.

As to `O=C(NCc1ccccc1)c1c2n(c(=O)n1-c1ccc(N3CC(F)(F)C3)cc1)CCN(C(=O)c1ccc(Br)c(Cl)c1)C2` [Example 391, N-benzyl-7-(4-bromo-3-chloro-benzoyl)-2-[4-(3,3-difluoroazetidin-1-yl)phenyl]-3-oxo-6,8-dihydro-5H-imidazo[1,5-a]pyrazine-1-carboxamide], the EC50 fell in the range of 100 to 500 nM.

Compound `COc1cc(C#N)ccc1CNC(=O)c1c2n(c(=O)n1-c1ccc(OCC(F)(F)F)cc1)CCN(C(=O)c1ccc(Br)c(Cl)c1)C2` [Example 249, 7-(4-bromo-3-chloro-benzoyl)-N-[(4-cyano-2-methoxy-phenyl)methyl]-3-oxo-2-[4-(2,2,2-trifluoroethoxy)phenyl]-6,8-dihydro-5H-imidazo[1,5-a]pyrazine-1-carboxamide] returned an EC50 of 100 to 500 nM.

In turn, `O=C(NCc1ccccc1-c1ncccn1)c1c2n(c(=O)n1-c1ccc(OCC(F)(F)F)cc1)CCN(C(=O)c1ccc(Br)c(Cl)c1)C2` [Example 377, 7-(4-bromo-3-chloro-benzoyl)-3-oxo-N-[(2-pyrimidin-2-ylphenyl)methyl]-2-[4-(2,2,2-trifluoroethoxy)phenyl]-6,8-dihydro-5H-imidazo[1,5-a]pyrazine-1-carboxamide] came in with an EC50 of less than 100 nM.

For `CC1Cn2c(c(C(=O)N[C@@H](C)c3ccccc3F)n(-c3ccc(OC4CC4)cc3)c2=O)CN1C(=O)c1ccc(Br)c(Cl)c1` (mixture of isomers) [Example 334, (6SR)-7-(4-bromo-3-chloro-benzoyl)-2-[4-(cyclopropoxy)phenyl]-N-[(1S)-1-(2-fluorophenyl)ethyl]-6-methyl-3-oxo-6,8-dihydro-5H-imidazo[1,5-a]pyrazine-1-carboxamide], the EC50 fell in the range of 100 to 500 nM.

`COc1ccc([C@@H](C)NC(=O)c2c3n(c(=O)n2-c2ccc(OC4CC4)cc2)CCN(C(=O)c2ccc(Br)c(Cl)c2)C3)cc1` [Example 453, 7-(4-bromo-3-chloro-benzoyl)-2-[4-(cyclopropoxy)phenyl]-N-[(1R)-1-(4-methoxyphenyl)ethyl]-3-oxo-6,8-dihydro-5H-imidazo[1,5-a]pyrazine-1-carboxamide] had an EC50 of 100 to 500 nM.

In turn, `COc1ccc(-n2c(C(=O)N[C@@H](C)c3ccccc3F)c3n(c2=O)CCN(C(=O)c2ccc(Br)c(Cl)c2)C3)cc1` (stereo in doubt) [Example 162, 7-(4-bromo-3-chloro-benzoyl)-2-(4-methoxyphenyl)-3-oxo-N-[rac-(1S)-1-(2-fluorophenyl)ethyl]-6,8-dihydro-5H-imidazo[1,5-a]pyrazine-1-carboxamide] returned an EC50 of 100 to 500 nM.

The compound `O=C(NCc1ccccc1-c1ncccn1)c1c2n(c(=O)n1-c1ccc(-n3cccn3)cc1)CCN(C(=O)c1ccc(Br)c(Cl)c1)C2` [Example 429, 7-(4-bromo-3-chloro-benzoyl)-3-oxo-2-(4-pyrazol-1-ylphenyl)-N-[(2-pyrimidin-2-ylphenyl)methyl]-6,8-dihydro-5H-imidazo[1,5-a]pyrazine-1-carboxamide] came in with an EC50 of less than 100 nM.

`COc1ccc([C@H](C)NC(=O)c2c3n(c(=O)n2-c2ccc(OC(C)C)cc2)CCN(C(=O)c2ccc(Br)c(Cl)c2)C3)c(F)c1` (stereo in doubt) [Example 235, 7-(4-bromo-3-chloro-benzoyl)-2-(4-isopropoxyphenyl)-3-oxo-N-[rac-(1S)-1-(2-fluoro-4-methoxy-phenyl)ethyl]-6,8-dihydro-5H-imidazo[1,5-a]pyrazine-1-carboxamide] yielded an EC50 of 100 to 500 nM.

The compound `COc1ccc(-n2c(C(=O)NCc3ccc(Cl)c(OC)c3)c3n(c2=O)CCN(C(=O)c2ccc(Br)c(Cl)c2)C3)cc1` [Example 101, 7-(4-bromo-3-chloro-benzoyl)-N-[(4-chloro-3-methoxy-phenyl)methyl]-2-(4-methoxyphenyl)-3-oxo-6,8-dihydro-5H-imidazo[1,5-a]pyrazine-1-carboxamide] showed a concentration for a half-maximal effect (EC50) of 500 to 5000 nM.

The values above are taken from patent US11591341B2 (ALIGOS THERAPEUTICS, INC., priority 2019, dated 2023).
